pIC50: −log10 of the molar value. Counter-ions that a name gives are not always drawn.

In the first assay the target is interaction between p53 and MDM2 proteins (recombinant GST-tagged MDM2) (Homo sapiens, UniProt Q00987). Nature of the assay: HTRF assay of inhibition of the p53-MDM2 interaction (GST-MDM2 / biotinylated p53 peptide).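 Note: FRET read-out from Eu-labelled anti-GST antibody to streptavidin-APC, with 90 nM N-terminally biotinylated p53 peptide and 160 ng/ml GST-MDM2 in Tris-borate saline containing 1 mM DTT, 384-well format.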
Sequence of interaction between p53 and MDM2 proteins (recombinant GST-tagged MDM2) (Q00987 whole entry): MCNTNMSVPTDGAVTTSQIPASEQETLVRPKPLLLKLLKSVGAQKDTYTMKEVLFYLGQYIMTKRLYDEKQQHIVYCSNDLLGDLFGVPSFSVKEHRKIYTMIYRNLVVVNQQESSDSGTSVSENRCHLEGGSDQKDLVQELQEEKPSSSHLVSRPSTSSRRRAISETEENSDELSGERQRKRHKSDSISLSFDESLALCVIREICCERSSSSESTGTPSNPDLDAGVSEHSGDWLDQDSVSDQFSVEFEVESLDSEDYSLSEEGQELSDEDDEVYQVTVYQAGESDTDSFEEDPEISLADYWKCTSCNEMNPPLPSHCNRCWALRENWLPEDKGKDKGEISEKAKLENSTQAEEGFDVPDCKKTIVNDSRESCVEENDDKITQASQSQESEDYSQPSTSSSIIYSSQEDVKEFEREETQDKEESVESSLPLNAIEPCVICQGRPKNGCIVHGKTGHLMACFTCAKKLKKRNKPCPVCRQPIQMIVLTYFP
Conditions: not given
It counts as binding. On the technique in general: In TR-FRET formats the signal depends on donor and acceptor labels being close together.
The pIC50 is the negative decadic logarithm of the IC50, by convention in mol/L. As for `COc1cc(C(=O)OCCCC(=O)O)ccc1NC(=O)[C@@H]1N[C@@H](CC(C)(C)C)[C@](C#N)(c2ccc(Cl)cc2F)[C@H]1c1cccc(Cl)c1F` [Example 36, 4-{[(2R,3S,4R,5S)-4-(4-Chloro-2-fluoro-phenyl)-3-(3-chloro-2-fluoro-phenyl)-4-cyano-5-(2,2-dimethyl-propyl)-pyrrolidine-2-carbonyl]-amino}-3-methoxy-benzoic acid 3-carboxy-propyl ester], the pIC50 was 8.30.

Staying with this assay, now noted: HTRF, 0.02% BSA, 37° C. 1 h.
On to `COc1cc(C(=O)OCCOC(=O)[C@H](C)N)ccc1NC(=O)[C@@H]1N[C@@H](CC(C)(C)C)[C@](C#N)(c2ccc(Cl)cc2F)[C@H]1c1cccc(Cl)c1F` [Example 4, 4-{[(2R,3S,4R,5S)-3-(3-Chloro-2-fluoro-phenyl)-4-(4-chloro-2-fluoro-phenyl)-4-cyano-5-(2,2-dimethyl-propyl)-pyrrolidine-2-carbonyl]-amino}-3-methoxy-benzoic acid 2-((S)-2-amino-propionyloxy)-ethyl ester], for which the negative-log IC50 (pIC50) was 8.01.

Take `COc1cc(C(=O)OC(C)CN2CCOCC2)ccc1NC(=O)[C@@H]1N[C@@H](CC(C)(C)C)[C@](C#N)(c2ccc(Cl)cc2F)[C@H]1c1cccc(Cl)c1F` (stereo partly drawn) [Example 21, 4-{[(2R,3S,4R,5S)-4-(4-Chloro-2-fluoro-phenyl)-3-(3-chloro-2-fluoro-phenyl)-4-cyano-5-(2,2-dimethyl-propyl)-pyrrolidine-2-carbonyl]-amino}-3-methoxy-benzoic acid 1-methyl-2-morpholin-4-yl-ethyl ester]: the pIC50 was 7.86.

Consider `COCCOCCOCCOCCOC(=O)COC(=O)c1ccc(NC(=O)[C@@H]2N[C@@H](CC(C)(C)C)[C@](C#N)(c3ccc(Cl)cc3F)[C@H]2c2cccc(Cl)c2F)c(OC)c1` [Example 73, 4-{[(2R,3S,4R,5S)-4-(4-Chloro-2-fluoro-phenyl)-3-(3-chloro-2-fluoro-phenyl)-4-cyano-5-(2,2-dimethyl-propyl)-pyrrolidine-2-carbonyl]-amino}-3-methoxy-benzoic acid 2-{2-[2-(2-methoxy-ethoxy)-ethoxy]-ethoxy}-ethoxycarbonylmethyl ester], for which the pIC50 is 7.71.

Regarding `COc1cc(C(=O)OCCC(=O)O)ccc1NC(=O)[C@@H]1N[C@@H](CC(C)(C)C)[C@](C#N)(c2ccc(Cl)cc2F)[C@H]1c1cccc(Cl)c1F` [Example 38, 4-{[(2R,3S,4R,5S)-4-(4-Chloro-2-fluoro-phenyl)-3-(3-chloro-2-fluoro-phenyl)-4-cyano-5-(2,2-dimethyl-propyl)-pyrrolidine-2-carbonyl]-amino}-3-methoxy-benzoic acid 2-carboxy-ethyl ester], the negative logarithm of the IC50 (pIC50) is 7.99.

As to `COc1cc(C(=O)N(C)C[C@H](O)[C@@H](O)[C@H](O)[C@H](O)CO)ccc1NC(=O)[C@@H]1N[C@@H](CC(C)(C)C)[C@](C#N)(c2ccc(Cl)cc2F)[C@H]1c1cccc(Cl)c1F` [Example 55, (2R,3S,4R,5S)-4-(4-Chloro-2-fluoro-phenyl)-3-(3-chloro-2-fluoro-phenyl)-4-cyano-5-(2,2-dimethyl-propyl)-pyrrolidine-2-carboxylic acid {2-methoxy-4-[methyl-((2S,3R,4R,5R)-2,3,4,5,6-pentahydroxy-hexyl)-carbamoyl]-phenyl}-amide, hydrochloride], the pIC50 was 8.04.

Take `COc1cc(C(=O)O[C@@H]2O[C@H](C(=O)O)[C@@H](O)[C@H](O)[C@H]2O)ccc1NC(=O)[C@@H]1N[C@@H](CC(C)(C)C)[C@](C#N)(c2ccc(Cl)cc2F)[C@H]1c1cccc(Cl)c1F` [Example 40, (2S,3S,4S,5R,6S)-6-(4-{[(2R,3S,4R,5S)-4-(4-Chloro-2-fluoro-phenyl)-3-(3-chloro-2-fluoro-phenyl)-4-cyano-5-(2,2-dimethyl-propyl)-pyrrolidine-2-carbonyl]-amino}-3-methoxy-benzoyloxy)-3,4,5-trihydroxy-tetrahydro-pyran-2-carboxylic acid; compound with trifluoro-acetic acid]: the pIC50 is 8.21.

With `COc1cc(C(=O)OCC2COC(C)(C)O2)ccc1NC(=O)[C@@H]1N[C@@H](CC(C)(C)C)[C@](C#N)(c2ccc(Cl)cc2F)[C@H]1c1cccc(Cl)c1F` (stereo partly drawn) [Example 8, (2,2-Dimethyl-1,3-dioxolan-4-yl)methyl 4-((2R,3S,4R,5S)-3-(3-chloro-2-fluorophenyl)-4-(4-chloro-2-fluorophenyl)-4-cyano-5-neopentylpyrrolidine-2-carboxamido)-3-methoxybenzoate], the pIC50 is 8.02.

In the case of `COc1cc(C(=O)OCCOCCOCCOCCOCCOCCOCCOCCO)ccc1NC(=O)[C@@H]1N[C@@H](CC(C)(C)C)[C@](C#N)(c2ccc(Cl)cc2F)[C@H]1c1cccc(Cl)c1F` [Example 42, 4-{[(2R,3S,4R,5S)-4-(4-Chloro-2-fluoro-phenyl)-3-(3-chloro-2-fluoro-phenyl)-4-cyano-5-(2,2-dimethyl-propyl)-pyrrolidine-2-carbonyl]-amino}-3-methoxy-benzoic acid, 2-(2-{2-[2-(2-{2-[2-(2-hydroxy-ethoxy)-ethoxy]-ethoxy}-ethoxy)-ethoxy]-ethoxy}-ethoxy)-ethyl ester, trifluoroacetate salt], the negative-log IC50 (pIC50) is 7.65.

Turning to `COc1cc(C(=O)OCCO)ccc1NC(=O)[C@@H]1N[C@@H](CC(C)(C)C)[C@](C#N)(c2ccc(Cl)cc2F)[C@H]1c1cccc(Cl)c1F` [Example 1, 2-Hydroxyethyl 4-((2R,3S,4R,5S)-3-(3-chloro-2-fluorophenyl)-4-(4-chloro-2-fluorophenyl)-4-cyano-5-neopentylpyrrolidine-2-carboxamido)-3-methoxybenzoate], the negative logarithm of the IC50 (pIC50) was 7.95.

For the compound `COc1cc(C(=O)On2nnc3cccnc32)ccc1NC(=O)[C@@H]1N[C@@H](CC(C)(C)C)[C@](C#N)(c2ccc(Cl)cc2F)[C@H]1c1cccc(Cl)c1F` [Example 20, 4-{[(2R,3S,4R,5S)-4-(4-Chloro-2-fluoro-phenyl)-3-(3-chloro-2-fluoro-phenyl)-4-cyano-5-(2,2-dimethyl-propyl)-pyrrolidine-2-carbonyl]-amino}-3-methoxy-benzoic acid [1,2,3]triazolo[4,5-b]pyridin-3-yl ester], the negative-log IC50 (pIC50) was 8.18.

As to `COc1cc(C(=O)NCCOCCOCCOCCN)ccc1NC(=O)[C@@H]1N[C@@H](CC(C)(C)C)[C@](C#N)(c2ccc(Cl)cc2F)[C@H]1c1cccc(Cl)c1F` [Example 77, (2R,3S,4R,5S)-4-(4-Chloro-2-fluoro-phenyl)-3-(3-chloro-2-fluoro-phenyl)-4-cyano-5-(2,2-dimethyl-propyl)-pyrrolidine-2-carboxylic acid [4-(2-{2-[2-(2-amino-ethoxy)-ethoxy]-ethoxy}-ethylcarbamoyl)-2-methoxy-phenyl]-amide], the pIC50 is 8.20.

Consider `COC(=O)CC[C@@H](NC(=O)c1ccc(NC(=O)[C@@H]2N[C@@H](CC(C)(C)C)[C@](C#N)(c3ccc(Cl)cc3F)[C@H]2c2cccc(Cl)c2F)c(OC)c1)C(=O)OC` [Example 53, (R)-2-(4-{[(2R,3S,4R,5S)-4-(4-Chloro-2-fluoro-phenyl)-3-(3-chloro-2-fluoro-phenyl)-4-cyano-5-(2,2-dimethyl-propyl)-pyrrolidine-2-carbonyl]-amino}-3-methoxy-benzoylamino)-pentanedioic acid dimethyl ester, hydrochloride], for which the pIC50 is 7.90.

For the origin of these results see US9371280B2, “Substituted pyrrolidine-2-carboxamides” (Hoffmann-La Roche Inc., priority 2012, dated 2016).
